Results on three compounds are retold here after patent US20260344665A1, “FUNGICIDAL COMPOUND” (priority 2022, published 2026).

The subject of series [1] is Blumeria graminis f.sp. tritici. Nature of the series: Mixture with malonomicin, leaf disc, Blumeria graminis f.sp. tritici preventive. The format is in vivo. To be noted: foliar, 168 h, read-out: control of fungal growth. The text has this: (§1) A stock solution for oligosaccharide compound according to the present invention was produced in water plus 0.025% Tween®20. Malonomicin was produced according to Law et al, 2018 (Nature Catalys is | VOL 1 | DECEMBER 2018 | 977-984). A stock solution of malonomicin was produced in water plus 0.025% Tween®20.
(§2) Assays to test efficacy of mixtures of the compound of Formula (I) in combination with malonomicin on the control of fungal pathogens in a leaf disc assay were designed for two 24 well plates.
(§3) Table 11 and Table 12: Outline of 24 well testplate (3) and testplate (4) including concentration of compounds per well. The upper number in the cell indicates the oligosaccharide compound of the present invention concentration (ppm), the lower number malonomicin concentration (ppm). Column (1) holds a dilution series of compound of Formula (I), row (4-D) hold a dilution series of malonomicin. Well 4-D-(1) represents an untreated check. This design was applied for tests including Blumeria graminis f.sp. tritici (EPPO code: ERYSGT) with preventive spray timing and Parastagonospora nodorum (EPPO code: LEPTNO) with preventive spray timing.
(§4) A first set of master plates with 1× concentrated spray solution of the compound of Formula (I) stock diluted in water with concentrations according to Table 8, Table 9, Table 11 and Table 12, respectively, was prepared. Each well contained 0.025% Tween®20. Accordingly, a second set of master plates with 1× concentrated malonomicin stock diluted in water was prepared. Each well of the second set contained 0.025% Tween®20. Leaf segments placed on agar in 24 well plates are sprayed with 8 ul of solution from the master plate containing compound of Formula (I) and the leaf segments were let to dry, followed 2 hours later by 8 ul of solution from the master plate containing malonomicin. After second sprays have dried, leaf segments are infected with fungal spores to obtain a preventive application timing. Alternatively, leaf segments infected one day before spray of the compounds are used, resulting in a curative spray timing. In addition, several plates were produced where leaf segments were sprayed 2× in absence of test compound (with only Tween®20), representing the untreated check samples. For each leaf segment percent leaf coverage of disease symptoms was assessed. Percent leaf coverage reduction relative to the untreated check was calculated. Efficacy of the mixtures was tested in duplicate and on different fungal species. Reported efficacy values are the average of two replicate results.
Blumeria graminis f.sp. tritici (EPPO Code: ERYSGT) with Preventive Spray Timing
Wheat (cultivar Kanzler) leaf segments are placed on agar in multiwell plates (24-well format) and sprayed with test solutions (8 ul per well). After drying, the leaf disks are inoculated with spores of the fungus. After appropriate incubation the activity of a compound is assessed 7 dpi (days post inoculation) as preventive fungicidal activity.

Series [2] deals with Puccinia recondita. The experiment in a line: Mixture with malonomicin, leaf disc, Puccinia recondita preventive. The series is classed as in vivo.
Excerpt: (§5) An additional ingredient having pesticidal activity, for instance fungicidal activity may result in an unexpected synergistic activity. […] The action to be expected E for a given active ingredient combination obeys the so-called COLBY formula and can be calculated as follows (COLBY, S. R. “Calculating synergistic and antagonistic responses of herbicide combination”. Weeds, Vol. 15, pages 20-22; 1967): • ppm=milligrams of active ingredient (=a.i.) per liter of spray mixture • X=% action by active ingredient A) using p ppm of active ingredient • Y=% action by active ingredient B) using q ppm of active ingredient.
(§6) According to COLBY, the expected (additive) action of active ingredients A)+B) using p+q ppm of active ingredient is:
(§7) In mathematical terms, synergism corresponds to a positive value for the difference of (O-E). In the case of purely complementary addition of activities (expected activity), said difference (O-E) is zero. A negative value of said difference (O-E) signals a loss of activity compared to the expected activity.
as §1, §2
(§8) Table 8 and 9: Outline of 24 well testplate (1) and testplate (2) including concentration of compounds sprayed per well. The upper number in the cell indicates the oligosaccharide compound of the present invention concentration (ppm), the lower number malonomicin concentration (ppm). Column (1) holds a dilution series of compound of Formula (I), row (2-D) hold a dilution series of malonomicin. Well 2-D-(1) represents an untreated check. This design was applied for tests including Puccinia recondita (EPPO code: PUCCRE) with preventive and curative spray timing.
as §4, with “In addition, several plates were produced where leaf segments were sprayed 2× in absence of test compound (with only Tween®20), representing the untreated check samples.” left out, “Efficacy of the mixtures was tested in duplicate and on different fungal species. Reported efficacy values are the average of two replicate results.” left out
Wheat (cultivar Kanzler) leaf segments are placed on agar in multiwell plates (24-well format) and sprayed with test solutions (8 ul per well). […] After appropriate incubation the activity of a compound is assessed 8 dpi (days after inoculation) as preventive fungicidal activity.

In series [3] the test system is Puccinia recondita. The experiment in a line: Mixture with malonomicin, leaf disc, Puccinia recondita curative. The series is classed as in vivo. The note with it: foliar, 192 h, read-out: control of fungal growth.
Excerpt: as §5, §6, §7, §1, §2, §8, §4
Puccinia recondita (EPPO Code: PUCCRE) with Curative Spray Timing.
Wheat (cultivar Kanzler) leaf segments are placed on agar in multiwell plates (24-well format). The leaf disks are then inoculated with a spore suspension of the fungus. One day after inoculation the test solution is sprayed (8 ul per well). After appropriate incubation the activity of a compound is assessed 8 dpi (days after inoculation) as curative fungicidal activity

Series [4] has as its system Parastagonospora nodorum. The experiment in a line: Mixture with malonomicin, leaf disc, Parastagonospora nodorum preventive. The format is in vivo.
Excerpt: as §1, §2, §3, §4
Parastagonospora nodorum (EPPO Code: LEPTNO)
Wheat (cultivar Kanzler) leaf segments are placed on agar in multiwell plates (24-well format) and sprayed with test solutions (8 ul per well). After drying, the leaf disks are inoculated with a spore suspension of the fungus. After appropriate incubation the activity of a compound is assessed 4 dpi (days after inoculation) as preventive fungicidal activity.

The test system of series [5] is ROS production in wheat leaf discs. The experiment in a line: Reactive oxygen species (ROS) burst assay with wheat leaf discs. The note with it: INA 100 μM; treated vs. control, 40 minutes.
Series [6] deals with Blumeria graminis f.sp. tritici. The experiment in a line: Powdery mildew assay in wheat (haustoria formation). The series is classed as in vivo. To be noted: Blumeria graminis, 48 h, read-out: haustoria formation (% relative to control).
Series [7] deals with Puccinia recondita f. sp. tritici. The experiment in a line: Leaf painting assay in wheat seedling, Puccinia recondita preventive. The series is classed as in vivo. To be noted: 188.00 ppm, preventive. The method, then: (§9) Wheat seedlings of the variety Riband (for Zymoseptoria tritici trials) or variety Arina (for Puccinia recondite trials) were grown in the glasshouse until 14d after seeding. At this time, such seedlings usually have a first leaf fully emerged (designated L1), a second leaf fully emerged (L2) and a third leaf (L3) that is partially emerged and in the process of development. Using a permanent pen, two dots were applied on the second leaf such as to generate three segments of roughly equal size: Segment A (at the base), segment B (middle part) and segment C (tip of the leaf). A stock solution of the compound of Formula (I) was produced in water and of benzovindiflupyr in DMSO at a concentration of 10,000 ppm. […] The diluted compound was applied to the middle segment of L2 using a conventional cotton stick; the cotton stick was soaked in the diluted compound and rubbed several times on the adaxial leaf surface between the two marks. One day later, the complete plant was inoculated with a fungal spore suspension using a paint brush. The spore suspension was applied until before run-off.
For infection with Puccinia recondita (preventive): The test plants were inoculated by spraying them with a spore suspension one day after application (spore suspension at 80,000 spores per ml in water supplemented with Tween20 at 0.1%). After an incubation period of 1 day at 20 °C and 95% rh, the inoculated test plants were kept at 20 °C and 60% rh in a greenhouse.
(§10) The three segments of the leaf were evaluated individually.

Series [8] concerns Zymoseptoria tritici. Nature of the series: Leaf painting assay in wheat seedling, Zymoseptoria tritici preventive. To be noted: Experiment 1; 188.00 ppm; tip segment; preventive. The format is in vivo. The method, then: as §9
For infection with Zymoseptoria tritici (preventive), the test plants were inoculated by spraying a spore suspension on them one day after application (1.5 Mio spores per ml in water supplemented with 0.01% Tween20). After an incubation period of 4 days at 22 °C/21 °C (day/night) and 95% rh, the inoculated test plants were kept at 22 °C/21 °C (day/night) and 70% rh in a greenhouse.
as §10

`NC[C@@H]1NC(=O)C(C(=O)CC(NC(=O)[C@@H](N)CO)(C(=O)O)C(=O)O)=C1O` [malonomicin, {[(2S)-2-amino-3-hydroxypropanoyl]amino} {2-[(5S)-5-(aminomethyl)-4-hydroxy-2-oxo-2,5-dihydro-1H-pyrrol-3-yl]-2-oxoethyl} malonic acid, reference compound]: the inhibition of growth at 7.4 µg/mL in series [1] (malonomicin 7.4 ppm solo) amounted to 0%. In series [1] (malonomicin 22.2 ppm solo), the inhibition of growth at 22.2 µg/mL is 0%. Moreover, the inhibition of growth at 66.7 µg/mL in series [1] (malonomicin 66.7 ppm solo) worked out at 70%. Also, the inhibition of growth at 200 µg/mL in series [1] (malonomicin 200 ppm solo) and in series [3] (malonomicin 200 ppm solo) was 100% in each case. In addition, the inhibition of growth at 600 µg/mL in series [1] (malonomicin 600 ppm solo) came out at 75%. In addition, the “control of fungal growth” value in series [2] (malonomicin 0.74 ppm solo) was determined as 0%; in series [2] (malonomicin 2.22 ppm solo) it was 10%; in series [2] (malonomicin 6.67 ppm solo), 80%; in series [2] (malonomicin 20 ppm solo), 100%; in series [2] (malonomicin 200 ppm solo), 100%; in series [4] (malonomicin 7.4 ppm solo), 0%. The “control of fungal growth” value in series [4] (malonomicin 22.2 ppm solo) is 45%; in series [4] (malonomicin 66.7 ppm solo), 50%; in series [4] (malonomicin 200 ppm solo), 90%; in series [4] (malonomicin 600 ppm solo) it was 95%. The inhibition of growth at 0.74 µg/mL in series [3] (malonomicin 0.74 ppm solo) was 35%. In addition, in series [3] (malonomicin 2.22 ppm solo), the inhibition of growth at 2.22 µg/mL is 70%. Further, the inhibition of growth at 6.67 µg/mL in series [3] (malonomicin 6.67 ppm solo) turned out to be 100%. The inhibition of growth at 20 µg/mL in series [3] (malonomicin 20 ppm solo) was 100%.

For the compound `O=C(O)c1cc(Cl)nc(Cl)c1` [INA, 2.6-dichloro-isonicotinic acid, reference compound], the “Fold change (peak ROS)” value in series [5] was 1.8. In series [6], the activity at 100 µM was 27.6%.

Take `Cn1cc(C(=O)Nc2cccc3c2C2CCC3C2=C(Cl)Cl)c(C(F)F)n1` (centres unmarked) [benzovindiflupyr, reference compound]: the “% reduction fungal growth” value turned out to be 7% in series [7] (Experiment 2, base segment); 100% in series [7] (Experiment 2, middle segment (treated)); 100% in series [7] (Experiment 2, tip segment); 21% in series [7] (Experiment 3, base segment); 100% in series [7] (Experiment 3, middle segment (treated)); 100% in series [7] (Experiment 3, tip segment). Besides, the “% reduction fungal growth” value is given as 3% in series [7] (Experiment 4, base segment); 100% in series [7] (Experiment 4, middle segment (treated)); 100% in series [7] (Experiment 4, tip segment); 99% in series [8].
